Test results: publication PMC12292862 (Biomedicines, 2025)
“Also recorded” adds a separate entry of the source. Marks after values point to notes of the source that are not given here.

What was measured:
CRP = assay: Serum CRP (ELISA) in carrageenan-injected rats; format: in vivo, rat; details: compounds 200 mg/kg i.p., indomethacin 10 mg/kg, mean ± SD
Procedure: (§1) The selective pro-inflammatory cytokines were measured quantitatively using rat-specific Enzyme-Linked Immunosorbent Assay (ELISA) kits from Thermo Scientific™ (Waltham, MA, USA) with CAT. No. ERCRP for CRP; from Elabscience with Cat. No. E-EL-R2856 for TNF-α and with Cat. No. E-EL-R0011 for IL-1α; from CUSABIO, Houston, TX, USA, with Cat. No. CSB-E04640r for IL-6; and from My BioSource Co, USA, with Cat. No. MBS825017 for IL-1β, with Cat. No. MBS753621 for rat cyclooxygenase 1, and with Cat. No. MBS266603 for rat cyclooxygenase 2. Meanwhile, an ovine COX inhibitor-screening in vitro assay (item number 760111) was obtained from Cayman Chemical (Ann Arbor, MI, USA). We purchased malondialdehyde (MDA), glutathione (GSH), and superoxide dismutase (SOD) detection kits from Nanjing Jiancheng Bio-Technology Co. Ltd. (Nanjing, China).
(§2) At the end of the experiments, the rats were subjected to anesthesia with chloroform and then sacrificed. Blood was obtained via heart puncture for biochemical analysis. Following the animals’ sacrifice, the paws were taken out, decalcified, and stored in a 10% formalin solution. To prepare the tissue samples, they were sliced into thicknesses of 5 µm. Hematoxylin and eosin dyes were used to create the histology slides, which were then examined using a photomicroscope (Meiji Techno®, Iruma, Japan) for pathological alterations. The presence of inflammation was documented. Protease/phosphatase inhibitor cocktail in cold phosphate-buffered saline (1:4) (pH 7, 0.01 mol/L) (Cat. No. PPC1010, Sigma-Aldrich) was used to homogenize each rat’s paw piece in a glass homogenizer. After filtering and centrifuging the resultant homogenate for five minutes at 5000× g, oxidative stress biomarkers like GSH, SOD, and MDA were measured. The trials were repeated three times.

[1] = tested on: rat paw tissue dermal collagen; assay: Sirius Red staining of dermal collagen in paw tissue; format: in vivo; details: carrageenan-injected paw; compounds 200 mg/kg i.p., indomethacin 10 mg/kg
IL-6 = assay: Serum IL-6 (ELISA) in carrageenan-injected rats; format: in vivo, rat; details: compounds 200 mg/kg i.p., indomethacin 10 mg/kg, mean ± SD
Procedure: as §1, §2

IL-1α = assay: Serum IL-1α (ELISA) in carrageenan-injected rats; format: in vivo, rat; details: compounds 200 mg/kg i.p., indomethacin 10 mg/kg, mean ± SD
Procedure: as §1, §2

COX-2 = assay: In vitro colorimetric COX (ovine) inhibitor-screening assay, COX-2; format: biochemical; details: ovine COX-2, tested at 50, 100 and 150 µg/mL
Procedure: The test compounds’ ability to suppress COX-1 and COX-2 was evaluated using a colorimetric COX (ovine) inhibitor-screening method (Cayman Chemical, Item Number 760111). In brief, 150 μL of assay buffer, 10 μL of heme, 10 μL of enzyme (COX-1 or COX-2), and 10 μL of compound (1 mg/mL) make up the reaction mixture. In a final volume of […], the test compounds were evaluated at doses of 50, 100, and 150 μg/mL. The cyclooxygenase peroxidase component is used in the experiment. By monitoring the appearance of oxidized N, N, […] (TMPD) at 590 nm, the peroxidase activity is measured […]. […] The following formula was used to determine the % COX inhibition: The COX inhibition activity percentage is equal to (1 − T/C ×100), where T is the inhibitor well’s absorbance and C is the starting activity’s absorbance at 100% without the inhibitor well.

IL-1β = assay: Serum IL-1β (ELISA) in carrageenan-injected rats; format: in vivo, rat; details: compounds 200 mg/kg i.p., indomethacin 10 mg/kg, mean ± SD
Procedure: as §1, §2

TNF-α = assay: Serum TNF-α (ELISA) in carrageenan-injected rats; format: in vivo, rat; details: compounds 200 mg/kg i.p., indomethacin 10 mg/kg, mean ± SD
Procedure: as §1, §2

rat cyclooxygenase 1 = assay: COX-1 level in carrageenan-injected paw (ELISA); format: in vivo; details: compounds 200 mg/kg i.p., indomethacin 10 mg/kg, mean ± SD
Procedure: as §1, §2

rat cyclooxygenase 2 = assay: COX-2 level in carrageenan-injected paw (ELISA); format: in vivo; details: compounds 200 mg/kg i.p., indomethacin 10 mg/kg, mean ± SD
Procedure: as §1, with “Meanwhile, an ovine COX inhibitor-screening in vitro assay (item number 760111) was obtained from Cayman Chemical (Ann Arbor, MI, USA).” left out
as §2

rat paw tissue [2] = assay: Histopathological examination of paw tissue (HE); format: in vivo; details: carrageenan-injected paw; compounds 200 mg/kg i.p., indomethacin 10 mg/kg
Excerpt: as §2

[3] = tested on: carrageenan-induced rat paw edema; assay: Carrageenan-induced paw edema; format: in vivo; details: compounds 200 mg/kg i.p., indomethacin 10 mg/kg, 4 h after carrageenan
Excerpt: Rats’ carrageenan-induced paw edema model was used to assess the novel synthesized drugs’ anti-inflammatory properties. A total of 180–190 g of male Wistar rats were used for the experiments. In the animal house at Sohag University in Sohag, Egypt, every animal was kept in careful laboratory conditions. After being weighed and divided into six groups at random, the animals are housed for a week to reduce stress and allow them to get used to the laboratory environment. The chemicals that were synthesized were administered intraperitoneally (i.p.) to rats at a dosage of 200 mg/kg. The control group received only vehicles. […] The rats were given a 0.2 mL sub-plantar injection of a 1% (w/v) suspension of carrageenan (made in PBS) in their right hind paw thirty minutes following the injection of synthesized compounds [33]. […] The % inhibition of paw edema was calculated by the following formula [34]:%Inhibition = ((Mean edema of control group − Mean edema of test compound)/(Mean edema of control group)) × 100.

rat paw tissue [4] = assay: Histomorphometry lesion scores of paw tissue sections; format: in vivo; details: vs carrageenan group

**Q.** Which results are given for `COc1ccc2c(c1)c(CC(=O)O)c(C)n2C(=O)c1ccc(Cl)cc1` [indomethacin, reference compound]?
**A.** CRP (CRP): 6.23 ± 0.22 ^b ng/mL; dermal collagen content and distribution (Sirius Red) [1]: marked dispersed collagenous fibers; also recorded: markedly dispersed and less organized; IL-6 (IL-6): 18.49 ± 0.27 ^b pg/mL; IL-1α (IL-1α): 79.28 ± 0.55 ^b pg/mL; COX-2 inhibition % (mean activity) (COX-2): 97%; IL-1β (IL-1β): 92.86 ± 0.47 ^b pg/mL; TNF-α (TNF-α): 11.30 ± 0.30 ^b pg/mL; COX-1 level (rat cyclooxygenase 1): 6.31 ± 0.08 ng/mL; COX-2 level (rat cyclooxygenase 2): 5.11 ± 0.13 ng/mL; histopathological findings of paw tissue (HE) (rat paw tissue [2]): marked edema; inhibition of paw edema after 4 h [3]: 57.66%; inflammation scores (rat paw tissue [4]; Figure 11A): significantly reduced inflammation scores; vascular alteration scores (rat paw tissue [4]; Figure 11C): significantly mitigated vascular alterations
